Data from patent US7834025B2, “Substituted indolyl-alkyl-amino-derivatives as inhibitors of histone deacetylase” (Janssen Pharmaceutica N.V., priority 2006, dated 2010).
In brackets after ≈: the same amount, converted by molar mass. Read-outs that look alike come from different tables or passages of the source.

Tests used:
[1] = biological target: histone deacetylase (HeLa nuclear extracts); assay: In vitro assay for inhibition of histone deacetylase (Fluor de Lys, HeLa nuclear extracts); assay type: biochemical; settings: HeLa nuclear extracts 60 μg/ml, 75 μM Fluor de Lys substrate
From the text: The in vitro assay for inhibition of histone deacetylase (see example C.1) measures the inhibition of HDAC enzymatic activity obtained with the compounds of formula (I).
The HDAC Fluorescent Activity Assay/Drug Discovery Kit of Biomol (cat. No: AK-500-0001) was used. The HDAC Fluorescent Activity Assay is based on the Fluor de Lys (Fluorogenic Histone deAcetylase Lysyl) substrate and developer combination. The Fluor de Lys substrate, comprises an acetylated lysine side chain. Deacetylation of the substrate sensitizes the substrate so that, in the second step, treatment with the Fluor de Lys developer produces a fluorophore.
HeLa nuclear extracts (supplier: Biomol) were incubated at 60 μg/ml with 75 μM of substrate. The Fluor de Lys substrate was added in a buffer containing 25 mM Tris, 137 mM NaCl, 2.7 mM KCl and 1 mM MgCl2.6H2O at pH 7.4. After 30 min, 1 volume of the developer was added. The fluorophore was excited with 355 nm light and the emitted light (450 nm) was be detected on a fluorometric plate reader. For each experiment, controls (containing HeLa nuclear extract and buffer), a blank incubation (containing buffer but no HeLa nuclear extract) and samples (containing compound dissolved in DMSO and further diluted in buffer and HeLa nuclear extract) were run in parallel. In first instance, compounds were tested at a concentration of 10^−5M. […] All sample were tested 4 times. In each test the blank value was subtracted from both the control and the sample values. The control sample represented 100% of substrate deacylation. For each sample the fluorescence was expressed as a percentage of the mean value of the controls. […] Herein the effects of test compounds are expressed as pIC50 (the negative log value of the IC50-value) (see Table F-2).

[2] = Kinetic solubility in aqueous media (C.3.a); assay type: physicochemical; settings: kinetic from dmso stock, aqueous buffer pH 7.4
Method: (§1) The solubility of a compound measures the ability of a compound to stay in solution. In the first method, the ability of a compound to stay in aqueous solution upon dilution (see example C.3.a) is measured. DMSO-stock solutions are diluted with a single aqueous buffer solvent in different consecutive steps. Mixtures are then scanned in the BD Gentest Solubility Scanner for the occurrence of precipitation. In the second method the solubility of a compound at different pH's can be measured with the use of a chemiluminescent nitrogen detector (see example C.3.b).
DMSO-stock solutions from 5000-9.8 μM (½ dilutions) are made in DMSO in a 96 well stock solution plate (200 μl per well). After each dilution the samples are mixed. Aliquots of these DMSO solutions (2 μl) are then transferred into 2 other 96 well buffer plates, containing 200 μl per well aqueous buffer. Each of the buffer plates contains either aqueous buffer pH 7.4 or aqueous buffer pH 4.0. After the last dilution the buffer plates are mixed and the samples are stabilized at room temperature for ½ hour. Dilution is done in duplicate for each compound to exclude occasional errors. Mixtures are then scanned in the BD Gentest Solubility Scanner for the occurrence of precipitation. Based on the absence/presence of precipitate in the mixtures the kinetic solubility is calculated by interpolation. Ranking is performed into the 3 classes.

[3] = test system: human A2780 ovarian carcinoma cells; assay: Antiproliferative activity on A2780 cells (MTT); assay type: cell-based; settings: 96 h, four days of incubation, read-out: Cellular activity pIC50 C.2. (converted)
Method: Cellular activity of the compounds of formula (I) was determined on A2780 tumour cells using a […] assay for cell toxicity or survival (Mosmann Tim, Journal of Immunological Methods 65: 55-63, 1983)(see example C.2).
All compounds tested were dissolved in DMSO and further dilutions were made in culture medium. Final DMSO concentrations never exceeded 0.1% (v/v) in cell proliferation assays. Controls contained A2780 cells and DMSO without compound and blanks contained DMSO but no cells. MTT was dissolved at 5 mg/ml in PBS. A glycine buffer comprised of 0.1 M glycine and 0.1 M NaCl buffered to pH 10.5 with NaOH (1 N) was prepared (all reagents were from Merck).
The human A2780 ovarian carcinoma cells (a kind gift from Dr. T. C. Hamilton [Fox Chase Cancer Centre, Pa., USA]) were cultured in RPMI 1640 medium supplemented with 2 mM L-glutamine, 50 μg/ml gentamicin and 10% fetal calf serum. Cells were routinely kept as monolayer cultures at 37° C. in a humidified 5% CO2 atmosphere. Cells were passaged once a week using a trypsin/EDTA solution at a split ratio of 1:40. All media and supplements were obtained from Life Technologies. Cells were free of mycoplasma contamination as determined using the Gen-Probe Mycoplasma Tissue Culture kit (supplier: BioMérieux).
Cells were seeded in NUNC™ 96-well culture plates (Supplier: Life Technologies) and allowed to adhere to the plastic overnight. Densities used for plating were 1500 cells per well in a total volume of 200 μl medium. After cell adhesion to the plates, medium was changed and drugs and/or solvents were added to a final volume of 200 μl. Following four days of incubation, medium was replaced by 200 μl fresh medium and cell density and viability was assessed using an MTT-based assay. […] For each sample, the mean value for cell growth (in absorbance units) was expressed as a percentage of the mean value for cell growth of the control. […] Herein the effects of test compounds are expressed as pIC50 (the negative log value of the IC50-value)(see Table F-2).

[4] = test system: p21 promoter reporter A2780 clone tumour in nude mice; assay: p21 induction capacity, in vivo method (tumour fluorescence); settings: s.c. A2780 reporter clone, 20-40 mpk orally or intravenously daily during 6 days
Method: The last method is an in vivo method wherein mice are used for screening the pharmaceutical activity of a compound. The above described stably transformed tumour cells can be administered to mice in an amount sufficient to effect production of a tumour. After the tumour cells had sufficient time to form a tumour, a potentially active compound can be administered to the animals and the effect of said compound on the tumour cells is evaluated by measuring the expression of the reporter gene. Incubation with pharmaceutical active compounds will result in an increase of reporter gene expression compared to the control levels (see example C.6.b.)
A selected clone was injected subcutaneous (10^7 cells/200 μl) into the flank of nude mice and a calliper measurable tumour was obtained after 12 days. From day 12 on, animals were dosed, orally or intraveinally, daily during 6 days with solvent and 20-40 mpk compound (4-10 animals each). Tumours were evaluated for fluorescence by the in-house developed Automated Whole Body Imaging System (Fluorescent stereomicroscope type Olympus® SZX12 equipped with a GFP filter and coupled to a CCD camera type JAI® CV-M90 controlled by a software package based on the IMAQ Vision Software from National Instruments®).

[5] = Solubility with chemiluminescent nitrogen detector (C.3.b); assay type: physicochemical; settings: pH 2.3, aqueous buffer
Method: as §1
The solubility of a compound, at different pH's, can also be measured with the use of a chemiluminescent nitrogen detector (see Table F-2).

[6] = Metabolic stability in liver microsomes; settings: reference compounds; 15 min incubation with microsomes, 5 μM
[7] = human, 15 min, 5 μM

melting point [°C]	Enzymatic activity pIC50 C.1. [1]	solubility at 0.5 h [2] [µM]	IC50 [3] [nM]	Compound	further results
90	–	–	–	Cn1cc(C2CCN(CC3CCN(c4ccc(C(=O)Nc5ccccc5N)cn4)CC3)C2)c2ccccc21 (stereo not drawn) [Compound 5]	–
224	8.3	15.6 (≈ 7 µg/mL)	31.6	Cn1cc(C2CCCN(CC3CCN(c4ncc(C(=O)NO)cn4)CC3)C2)c2ccccc21 (stereo not drawn) [Compound 3]	–
231	8.9	9.4 (≈ 4.08 µg/mL)	50.1	Cn1cc(C2CCN(CC3CCN(c4ncc(C(=O)NO)cn4)CC3)C2)c2ccccc21 (stereo not drawn) [Compound 2]	Tumour fluorescence (reporter gene expression) versus control [4]: increased fluorescence as compared to control; solubility [5]: 1350 µg/mL (≈ 3.11 mM)
–	–	–	–	CCCO [propanol]	% metabolism [6]: 25%
–	–	–	–	COc1cc(N)c(Cl)cc1C(=O)NC1CCN(CCCOc2ccc(F)cc2)CC1OC (stereo not drawn) [Cisapride]	% metabolism [7]: 45%
296	9.0	7.8 (≈ 3.19 µg/mL)	31.6	CC(NCC1CCN(c2ncc(C(=O)NO)cn2)CC1)c1cn(C)c2ccccc12 (stereo not drawn) [Compound 1]	–
70	–	–	–	Cn1cc(C2CCN(CC3CCN(c4ccc(C(=O)NO)cn4)CC3)C2)c2ccccc21 (stereo not drawn) [Compound 4]	–
